Results from patent EP1183044B1, “ADJUVANT COMBINATIONS FOR IMMUNIZATION AND VACCINES” (priority 1999, dated 2000).
Like-named read-outs stand apart in the source and are kept apart here.

System: M.tuberculosis (Erdman)
Type: in vivo
Conditions: ESAT-6 10 µg/dose three times

Compound	Log10 resistance Lung, Experiment I ([…])	Log10 resistance Spleen, Experiment I ([…])	Log10 resistance Lung, Experiment I (log10 reduction of bacterial load in lung 6 weeks after aerosol challenge)	Log10 resistance Spleen, Experiment I (log10 reduction of bacterial load in spleen 6 weeks after aerosol challenge)
CCCCCCCCCCCCCCCCCC[N+](C)(C)CCCCCCCCCCCCCCCCCC.[Br-] [DDA, dimethyl dioctadecyl ammonium bromide]	< 0.05 log10	<0.05 log10		
monophosphoryl lipid A [MPL]			< 0.05 log10	<0.05 log10
